{
  "source": "patent EP4572800B1",
  "about": "“TETRAZINES WITH IMPROVED PROPERTIES” (Tagworks Pharmaceuticals B.V., priority 2023, dated 2024)",
  "key": {"[1]": {"target": "acetyl cholinesterase (ACES) (Homo sapiens, UniProt P22303)", "sequence (P22303 32-614)": "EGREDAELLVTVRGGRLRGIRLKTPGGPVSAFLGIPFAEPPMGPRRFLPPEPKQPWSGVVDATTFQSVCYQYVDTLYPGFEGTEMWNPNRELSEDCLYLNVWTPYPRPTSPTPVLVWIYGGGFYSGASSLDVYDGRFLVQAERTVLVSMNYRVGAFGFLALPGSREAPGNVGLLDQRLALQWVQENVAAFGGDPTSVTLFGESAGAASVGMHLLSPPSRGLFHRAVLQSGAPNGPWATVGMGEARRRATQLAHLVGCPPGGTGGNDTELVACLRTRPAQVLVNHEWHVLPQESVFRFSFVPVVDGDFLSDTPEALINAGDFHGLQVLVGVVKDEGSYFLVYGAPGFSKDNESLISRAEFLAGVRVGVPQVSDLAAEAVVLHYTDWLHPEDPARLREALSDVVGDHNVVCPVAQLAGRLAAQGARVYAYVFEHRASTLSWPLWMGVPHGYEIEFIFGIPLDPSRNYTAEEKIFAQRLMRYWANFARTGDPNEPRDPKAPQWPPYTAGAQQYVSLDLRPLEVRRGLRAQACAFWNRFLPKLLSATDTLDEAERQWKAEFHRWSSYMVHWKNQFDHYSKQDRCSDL", "test": "Enzyme inhibition study, ACES", "format": "biochemical, humans", "details": "for % ACES inhibition: final concentration of tetrazine 10 µM, human ACES", "procedure": "(§1) In this Example, the inhibition of several physiologically relevant target proteins (viz. enzymes and a transporter) by tetrazines were tested in vitro. The enzymes tested were cyclooxygenase (COX-1), acetyl cholinesterase (ACES), and monoamine oxidase (MAO-B), and the tested transporter was calcium channel L-type, dihydropyridine. COX-1, ACES, and MAO-B from humans was used, while calcium channel L-type, dihydropyridine from rats was used. Standard literature protocols were used, and relevant controls were included to ensure the validity of the results. The target proteins were mixed with tetrazine 2.1 (reference), 2.4, 2.5, 2.7, or 2.10 (final concentration of tetrazine 10 µM) in appropriate buffers. The final concentrations for the respective target proteins depended on the standard protocol used, but for each individual target protein this concentration was the same for the different tetrazines tested. After an appropriate incubation time at an appropriate temperature, the enzymatic activity of the enzyme or the ligand binding in case of the transporter was tested in accordance with standard procedures from literature. From this remaining enzymatic activity or ligand binding, the percentage of inhibition was determined."}, "[2]": {"test_system": "calcium channel L-type, dihydropyridine", "test": "Transporter ligand binding inhibition, calcium channel L-type", "set-up": "species or system rats", "details": "for % Calcium channel L-type dihydropyridine inhibition: final concentration of tetrazine 10 µM, rat, ligand binding", "procedure": "as §1"}, "[3]": {"target": "cyclooxygenase (COX-1) (Homo sapiens, UniProt P23219)", "sequence (P23219 24-599)": "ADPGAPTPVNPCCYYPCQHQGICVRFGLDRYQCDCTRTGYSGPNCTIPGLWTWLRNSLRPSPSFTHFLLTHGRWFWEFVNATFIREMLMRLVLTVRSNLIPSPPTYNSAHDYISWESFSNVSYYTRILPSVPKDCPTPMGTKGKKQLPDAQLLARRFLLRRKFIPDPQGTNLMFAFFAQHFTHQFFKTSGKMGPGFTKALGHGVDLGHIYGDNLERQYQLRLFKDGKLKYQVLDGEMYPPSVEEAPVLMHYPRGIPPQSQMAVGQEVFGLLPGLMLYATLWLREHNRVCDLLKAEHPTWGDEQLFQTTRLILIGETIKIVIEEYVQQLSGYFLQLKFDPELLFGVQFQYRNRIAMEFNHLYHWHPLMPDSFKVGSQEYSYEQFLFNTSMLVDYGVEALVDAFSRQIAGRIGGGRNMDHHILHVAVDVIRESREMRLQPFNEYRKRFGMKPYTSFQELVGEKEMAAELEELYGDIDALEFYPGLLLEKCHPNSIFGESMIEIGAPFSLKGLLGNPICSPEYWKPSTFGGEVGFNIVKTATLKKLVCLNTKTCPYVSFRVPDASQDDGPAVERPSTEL", "test": "Enzyme inhibition study, COX-1", "format": "biochemical, humans", "details": "for % COX-1 inhibition: final concentration of tetrazine 10 µM, human COX-1", "procedure": "as §1"}, "[4]": {"test": "Maximum tolerated dose (MTD) study in mice, single intravenous dose", "format": "in vivo", "details": "both sexes, Swiss albino, mouse, in vivo, iv, mice, single intravenous dose, observed up to 72 hours post-dose", "procedure": "(§2) In this Example, groups of Swiss albino mice (an equal number of male and female animals) were subjected to a single dose of tetrazine 2.1 (reference), 2.4, 2.5, 2.7, or 2.10. Different groups were used for different doses. […] Control groups were also used, wherein mice were only administered vehicle (phosphate-buffered saline (PBS) pH 7.4) without tetrazine (\"vehicle control\").\n(§3) Mice were treated in line with ethical guidelines. […] Environmental controls for the animal room were set to maintain a temperature of 22 to 25°C, humidity of 30-70% RH, and a 12-h light/12-h dark cycle.\n(§4) The dose formulations were prepared as follows. Tetrazine 2.1 (reference), 2.4, 2.5, 2.7, or 2.10 was dissolved in PBS pH 7.4 to prepare separate stock solutions of each tetrazine. […] Further dilutions of the tetrazine stock solutions were done with PBS pH 7.4 to achieve a desired concentration.\n(§5) Mice were dosed on day 1 by intravenously administering the dose formulation (expressed in µmol of tetrazine per kg body weight of the mouse). Thereafter, the mice were observed up to 72 hours post-dose for any signs of mortality. The number of dead mice after 72 hours (\"mortality\") was then divided by the original number of mice."}, "[5]": {"test_system": "Swiss albino mice", "test": "Maximum tolerated dose (MTD) study in mice, single intravenous dose", "format": "in vivo", "details": "72 hours", "procedure": "as §2, §3, §4, §5"}, "[6]": {"target": "T1, monoamine oxidase (MAO-B) (Homo sapiens, UniProt P27338)", "T1 sequence (P27338 1-520)": "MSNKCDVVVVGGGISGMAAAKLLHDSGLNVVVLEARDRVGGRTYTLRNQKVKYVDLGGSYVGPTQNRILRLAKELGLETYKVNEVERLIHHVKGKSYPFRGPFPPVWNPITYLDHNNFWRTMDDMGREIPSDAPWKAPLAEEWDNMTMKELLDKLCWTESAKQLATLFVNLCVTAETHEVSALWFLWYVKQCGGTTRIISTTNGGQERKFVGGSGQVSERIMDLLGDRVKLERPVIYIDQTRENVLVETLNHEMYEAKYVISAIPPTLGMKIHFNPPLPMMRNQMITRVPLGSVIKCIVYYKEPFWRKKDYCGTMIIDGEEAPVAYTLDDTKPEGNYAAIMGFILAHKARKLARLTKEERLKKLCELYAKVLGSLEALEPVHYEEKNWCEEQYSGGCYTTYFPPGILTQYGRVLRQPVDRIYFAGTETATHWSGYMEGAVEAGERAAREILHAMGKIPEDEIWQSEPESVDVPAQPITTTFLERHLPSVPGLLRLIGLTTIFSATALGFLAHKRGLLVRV", "test": "Enzyme inhibition study, MAO-B", "format": "biochemical, humans", "details": "for % MAO-B inhibition: final concentration of tetrazine 10 µM, human MAO-B", "procedure": "as §1"}},
  "data": [
    {"molecule": "O=C(O)CN(CCN(CC(=O)O)CC(=O)Nc1ccc(-c2nnc(-c3ccccn3)nn2)nc1)CC(=O)O", "note": "[2.4, 2,2'-((2-((Carboxymethyl)(2-oxo-2-((6-(6-(pyridin-2-yl)-1,2,4,5-tetrazin-3-yl)pyridin-3-yl)amino)ethyl)amino)ethyl)azanediyl)diacetic acid]", "values": [
      {"measurement": "% ACES inhibition", "setting": "[1]", "value": 11, "unit": "%"},
      {"measurement": "% Calcium channel L-type dihydropyridine inhibition", "setting": "[2]", "value": 10, "unit": "%"},
      {"measurement": "% COX-1 inhibition", "setting": "[3]", "value": 53, "unit": "%"},
      {"measurement": "MTD at 72 h", "setting": "[4]", "value": "≥ 57", "unit": "µmol/kg"},
      {"measurement": "No. of mortality vs. total no. of mice", "setting": "[5]; 19 µmol/kg i.v. single dose", "value": "0 out of 6"},
      {"measurement": "No. of mortality vs. total no. of mice", "setting": "[5]; 57 µmol/kg i.v. single dose", "value": "0 out of 6"},
      {"measurement": "No. of mortality vs. total no. of mice", "setting": "[5]; 95 µmol/kg i.v. single dose", "value": "4 out of 4"},
      {"measurement": "% MAO-B inhibition", "setting": "[6]", "value": 20, "unit": "%"}
    ]},
    {"molecule": "O=C([O-])CN(CCN(CC(=O)[O-])CC(=O)Nc1ccc(-c2nnc(-c3ccccn3)nn2)nc1)CC(=O)[O-].[Ca+2].[Na+]", "note": "[2.5, Calcium sodium 2-({2-[bis(carboxylatomethyl)amino]ethyl)[({6-[6-(pyridin-2-yl)-1,2,4,5-tetrazin-3-yl]pyridin-3-yl}carbamoyl)methyl]amino)acetate]", "values": [
      {"measurement": "% ACES inhibition", "setting": "[1]", "value": -1, "unit": "%"},
      {"measurement": "% Calcium channel L-type dihydropyridine inhibition", "setting": "[2]", "value": 1, "unit": "%"},
      {"measurement": "% COX-1 inhibition", "setting": "[3]", "value": 18, "unit": "%"},
      {"measurement": "No. of mortality vs. total no. of mice", "setting": "[5]; 85 µmol/kg i.v. single dose", "value": "0 out of 6"},
      {"measurement": "No. of mortality vs. total no. of mice", "setting": "[5]; 171 µmol/kg i.v. single dose", "value": "0 out of 6"},
      {"measurement": "No. of mortality vs. total no. of mice", "setting": "[5]; 512 µmol/kg i.v. single dose", "value": "0 out of 6"},
      {"measurement": "% MAO-B inhibition", "setting": "[6]", "value": 9, "unit": "%"}
    ]},
    {"molecule": "O=C(O)CCOCCOCCOCCC(=O)Nc1ccc(-c2nnc(-c3ccccn3)nn2)nc1", "note": "[2.7, 3-(2-(2-(3-Oxo-3-((6-(6-(pyridin-2-yl)-1,2,4,5-tetrazin-3-yl)pyridin-3-yl)amino)propoxy)ethoxy)ethoxy)propanoic acid]", "values": [
      {"measurement": "% ACES inhibition", "setting": "[1]", "value": 22, "unit": "%"},
      {"measurement": "% Calcium channel L-type dihydropyridine inhibition", "setting": "[2]", "value": -17, "unit": "%"},
      {"measurement": "% COX-1 inhibition", "setting": "[3]", "value": 37, "unit": "%"},
      {"measurement": "No. of mortality vs. total no. of mice", "setting": "[5]; 103 µmol/kg i.v. single dose", "value": "0 out of 6"},
      {"measurement": "No. of mortality vs. total no. of mice", "setting": "[5]; 207 µmol/kg i.v. single dose", "value": "0 out of 6"},
      {"measurement": "No. of mortality vs. total no. of mice", "setting": "[5]; 621 µmol/kg i.v. single dose", "value": "0 out of 6"},
      {"measurement": "% MAO-B inhibition", "setting": "[6]", "value": 38, "unit": "%"}
    ]},
    {"molecule": "O=C(O)CN(CC(=O)O)CC(=O)Nc1ccc(-c2nnc(-c3ccccn3)nn2)nc1", "note": "[2.10, 2,2'-((2-Oxo-2-((6-(6-(pyridin-2-yl)-1,2,4,5-tetrazin-3-yl)pyridin-3-yl)amino)ethyl)azanediyl)diacetic acid]", "values": [
      {"measurement": "% ACES inhibition", "setting": "[1]", "value": 5, "unit": "%"},
      {"measurement": "% Calcium channel L-type dihydropyridine inhibition", "setting": "[2]", "value": -3, "unit": "%"},
      {"measurement": "% COX-1 inhibition", "setting": "[3]", "value": 14, "unit": "%"},
      {"measurement": "No. of mortality vs. total no. of mice", "setting": "[5]; 118 µmol/kg i.v. single dose", "value": "0 out of 6"},
      {"measurement": "No. of mortality vs. total no. of mice", "setting": "[5]; 177 µmol/kg i.v. single dose", "value": "0 out of 6"},
      {"measurement": "No. of mortality vs. total no. of mice", "setting": "[5]; 236 µmol/kg i.v. single dose", "value": "0 out of 6"},
      {"measurement": "% MAO-B inhibition", "setting": "[6]", "value": 22, "unit": "%"}
    ]},
    {"molecule": "O=C(O)CN1CCN(CC(=O)O)CCN(CC(=O)NCCOCCOCCOCCOCCOCCOCCOCCOCCOCCOCCOCCNC(=O)CCCC(=O)Nc2ccc(-c3nnc(-c4ccccn4)nn3)nc2)CCN(CC(=O)O)CC1", "note": "[compound 2.1, 2,2',2''-(10-(2,40,44-Trioxo-44-((6-(6-(pyridine-2-yl)-1,2,4,5-tetrazin-3-yl)pyridine-3-yl)amino)-6,9,12,15,18,21,24,27,30,33,36-undecaoxa-3,39-diazatetratetracontyl)-1,4,7,10-tetraazacyclododecane-1,4,7-triyl)triacetic acid, reference compound]", "values": [
      {"measurement": "% ACES inhibition", "setting": "[1]", "value": 44, "unit": "%"},
      {"measurement": "inhibition of acetyl cholinesterase (ACES), in words", "setting": "[1]; statement in description", "value": "strongly inhibits"},
      {"measurement": "% Calcium channel L-type dihydropyridine inhibition", "setting": "[2]", "value": 44, "unit": "%"},
      {"measurement": "inhibition of calcium channel L-type, dihydropyridine, in words", "setting": "[2]; statement in description", "value": "strongly inhibits"},
      {"measurement": "% COX-1 inhibition", "setting": "[3]", "value": 59, "unit": "%"},
      {"measurement": "inhibition of cyclooxygenase (COX-1), in words", "setting": "[3]; statement in description", "value": "strongly inhibits"},
      {"measurement": "MTD at 72 h", "setting": "[4]", "value": "~39", "unit": "µmol/kg"},
      {"measurement": "No. of mortality vs. total no. of mice", "setting": "[5]; 8 µmol/kg i.v. single dose", "value": "0 out of 6"},
      {"measurement": "No. of mortality vs. total no. of mice", "setting": "[5]; 39 µmol/kg i.v. single dose", "value": "0 out of 6"},
      {"measurement": "No. of mortality vs. total no. of mice", "setting": "[5]; 78 µmol/kg i.v. single dose", "value": "4 out of 6"},
      {"measurement": "% MAO-B inhibition", "setting": "[6]", "value": 36, "unit": "%"},
      {"measurement": "inhibition of monoamine oxidase (MAO-B), in words", "setting": "[6]; statement in description", "value": "strongly inhibits"}
    ]}
  ]
}
